Measurements: patent US6525059B1, “Substituted pyrazoles as p38 kinase inhibitors” (G. D. Searle & Company, priority 1998, dated 2003)
pIC50: −log10 of the molar value. Where a name gives a salt, the structure may show the parent alone. Read-outs that look alike come from different tables or passages of the source.

Key:
human TNF = assay: TNF inhibition: human whole blood assay; format: cell-based; conditions: Homo sapiens, LPS, read-out: TNF Inhibition-Human Whole Blood Assay
[1] = biological target: T1, human GST-p38 kinase alpha (Homo sapiens, UniProt Q16539); assay: p38 kinase in vitro assay, second format, phosphorylation of EGFRP with 33P-ATP; format: biochemical; conditions: read-out: p38α Kinase Assay IC50
T1 construct: The coding region of the human p38a cDNA was obtained by PCR-amplification from RNA isolated from the human monocyte cell line THP.1; made in house; host or cells: E. coli DH10B
T1 sequence (Q16539 whole entry): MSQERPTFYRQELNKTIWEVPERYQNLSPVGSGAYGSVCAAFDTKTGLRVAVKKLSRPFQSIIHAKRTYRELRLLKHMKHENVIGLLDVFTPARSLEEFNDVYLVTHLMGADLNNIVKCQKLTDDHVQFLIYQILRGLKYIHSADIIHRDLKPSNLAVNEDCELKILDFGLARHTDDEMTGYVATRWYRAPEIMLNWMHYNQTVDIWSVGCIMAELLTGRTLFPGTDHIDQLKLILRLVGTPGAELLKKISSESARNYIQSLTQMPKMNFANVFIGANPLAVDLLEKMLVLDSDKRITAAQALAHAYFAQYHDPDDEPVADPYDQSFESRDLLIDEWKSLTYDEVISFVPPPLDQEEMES
How it was run: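 Activated human GST-p38α (pre-activated with GST-MKK6, 1 h, 30 °C) phosphorylates EGFR 21-mer peptide (200 μM) with 50 μM ATP plus γ-33P-ATP, pH 7.5, 60 min at room temperature. Unreacted ATP removed by AG 1×8 resin; supernatant scintillation-counted.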

TNF-α = assay: Rat assay: LPS-challenged rats, serum TNF-α by ELISA; format: in vivo; conditions: Rattus norvegicus, po

Compound	melting point	other results
C#CCn1nc(N2CCNCC2)c(-c2ccncc2)c1-c1ccc(Cl)cc1 (as salt: hydrochloride) (hydrate or solvate) [Example A-318, 1-[5-(4-chlorophenyl)-4-(4-pyridinyl)-1-(2-propynyl)-1H-pyrazol-3-yl]piperazine, trihydrochloride monohydrate]	231 to 233 °C (dec.)	–
Fc1ccc(-c2[nH]nc(N3CCNCC3)c2-c2ccncc2)cc1 (as salt: hydrochloride) [Example A-172, 1-[5-(4-fluorophenyl)-4-(4-pyridinyl)-1H-pyrazol-3-yl]piperazine trihydrochloride]	204 to 206 °C	–
CN1CCN(c2n[nH]c(-c3ccc(F)cc3)c2-c2ccncc2)CC1.O.O (hydrate or solvate)	238 to 240 °C	–
CN1CCC(N(C)c2[nH]nc(-c3ccc(Cl)cc3)c2-c2ccncc2)CC1 (hydrate or solvate)	260 to 261 °C	–
O.O.O=C(O)CCC(=O)N1CCN(c2n[nH]c(-c3ccc(Cl)cc3)c2-c2ccncc2)CC1 (hydrate or solvate) [A-321 (dihydrate), 4-[5-(4-chlorophenyl)-4-(4-pyridinyl)-1H-pyrazol-3-yl]-γ-oxo-1-piperazinebutanoic acid, dihydrate]	281 to 283 °C (dec.)	–
CN1CCN(c2[nH]nc(-c3ccc(F)cc3)c2-c2ccncc2)CC1 (hydrate or solvate) [Example A-317, 1-[5-(4-fluorophenyl)-4-(4-pyridinyl)-1H-pyrazol-3-yl]-4-methylpiperazine, dihydrate]	262 to 264 °C	–
COC(=O)N1CCN(c2[nH]nc(-c3ccc(Cl)cc3)c2-c2ccncc2)CC1 (hydrate or solvate) [Example A-319, methyl 4-[5-(4-chlorophenyl)-4-(4-pyridinyl)-1H-pyrazol-3-yl]-1-piperazinecarboxylate, monohydrate]	264 to 265 °C	–
CS(=O)(=O)N1CCN(c2[nH]nc(-c3ccc(Cl)cc3)c2-c2ccncc2)CC1 (hydrate or solvate) [Example A-320, 1-[5-(4-chlorophenyl)-4-(4-pyridinyl)-1H-pyrazol-3-yl]-4-(methylsulfonyl)piperazine, monohydrate]	245 to 248 °C	–
Cc1nn(C)c(-c2ccc(Cl)cc2)c1-c1ccncc1 [Example A-32, 4-[5-(4-chlorophenyl)-1,3-dimethyl-1H-pyrazol-4-yl]pyridine]	88.6 °C	–
CCN(CC)c1n[nH]c(-c2ccc(Cl)cc2)c1-c1ccncc1 [Example A-163, 5-(4-chlorophenyl)-N,N-diethyl-4-(4-pyridinyl)-1H-pyrazol-3-amine]	260 to 261 °C	–
CC(C)(C)OC(=O)N1CCN(c2n[nH]c(-c3ccc(F)cc3)c2-c2ccncc2)CC1 [Example A-171, 1,1-dimethylethyl 4-[5-(4-fluorophenyl)-4-(4-pyridinyl)-1H-pyrazol-3-yl]-1-piperazinecarboxylate]	243 to 244 °C	–
Cc1n[nH]c(-c2c(F)cccc2F)c1-c1ccncc1 [Example A-184, 4-[3-(2,6-difluorophenyl)-5-methyl-1H-pyrazol-4-yl]pyridine]	236.67 °C	–
CCc1cccc(-c2[nH]nc(C)c2-c2ccncc2)c1 [Example A-185, 4-[3-(3-ethylphenyl)-5-methyl-1H-pyrazol-4-yl]pyridine]	189.25 °C	–
CCc1cccc(-c2[nH]nc(CC)c2-c2ccncc2)c1 [Example A-187, 4-[3-ethyl-5-(3-ethylphenyl)-1H-pyrazol-4-yl]pyridine]	192.66 °C	–
Fc1ccc(-c2[nH]nc(C(F)(F)F)c2-c2ccncc2)cc1 [Example A-190]	281.94 °C	–
Cn1nc(-c2ccc(F)cc2)c(-c2ccncc2)c1C1CC1 [Example A-191]	129 to 130 °C	–
OCCn1nc(-c2ccc(F)cc2)c(-c2ccncc2)c1C1CC1 [Example A-192, 5-cyclopropyl-3-(4-fluorophenyl)-4-(4-pyridinyl)-1H-pyrazole-1-ethanol]	155 to 157 °C	–
COc1cc(-c2c(-c3ccncc3)c(-c3ccc(F)cc3)nn2CCO)ccn1 [Example A-193, 3-(4-fluorophenyl)-5-(2-methoxy-4-pyridinyl)-4-(4-pyridinyl)-1H-pyrazole-1-ethanol]	168 to 169 °C	–
O=c1cc(-c2c(-c3ccncc3)c(-c3ccc(F)cc3)nn2CCO)cc[nH]1 [Example A-194, 4-[3-(4-fluorophenyl)-1-(2-hydroxyethyl)-4-(4-pyridinyl)-1H-pyrazol-5-yl]-2(1H)-pyridinone]	250 to 251 °C	–
CC(=O)n1ccc(-c2c(-c3ccncc3)c(-c3ccc(F)cc3)nn2CCO)cc1=O [Example A-195, 1-acetyl-4-[3-(4-fluorophenyl)-1-(2-hydroxyethyl)-4-(4-pyridinyl)-1H-pyrazol-5-yl]-2(1H)-pyridinone]	220 to 221 °C	–

Compound	melting point	other results
O=C(O)C1CC1c1c(-c2ccncc2)c(-c2ccc(F)cc2)nn1CCO (stereo not drawn) [Example A-197, 2-[3-(4-fluorophenyl)-1-(2-hydroxyethyl)-4-(4-pyridinyl)-1H-pyrazol-5-yl]cyclopropanecarboxylic acid]	253 to 255 °C	–
OCCn1nc(-c2ccc(F)cc2)c(-c2ccncc2)c1-c1cnc[nH]1 [Example A-198, 3-(4-fluorophenyl)-5-(4-imidazolyl)-4-(4-pyridinyl)-1H-pyrazole-1-ethanol]	227 to 228 °C	–
Cc1cc(-c2n[nH]cc2-c2ccncc2)ccc1Cl [Example A-199, 4-[3-(4-chloro-3-methylphenyl)-1H-pyrazol-yl]pyridine]	198.17 °C	–
Cc1c(-c2ccncc2)c(-c2ccc(Cl)cc2)nn1C [Example A-204, 4-[3-(4-chlorophenyl)-1,5-dimethyl-1H-pyrazol-4-yl]pyridine]	82 to 88 °C	–
CCn1nc(-c2ccc(Cl)cc2)c(-c2ccncc2)c1C [Example A-206, 4-[3-(4-chlorophenyl)-1-ethyl-5-methyl-1H-pyrazol-4-yl]pyridine]	164.36 °C	–
Clc1ccccc1-c1[nH]ncc1-c1ccncc1 [Example A-209, 4-[3-(2-chlorophenyl)-1H-pyrazol-4-yl]pyridine]	208.46 °C	–
NNc1cc(-c2c[nH]nc2-c2cccc(Cl)c2)ccn1 [Example A-219, 4-[3-(3-chlorophenyl)-1H-pyrazol-4-yl]-2(1H)-pyridinone hydrazone]	163 to 164 °C	–
Clc1cccc(-c2n[nH]cc2-c2ccnc(NCc3ccccc3)c2)c1 [Example A-220, 4-[3-(3-chlorophenyl)-1H-pyrazol-4-yl]-N-(phenylmethyl)-2-pyridinamine]	179 to 180 °C	–
Clc1cccc(-c2n[nH]cc2-c2ccnc(NCCc3ccccc3)c2)c1 [Example A-221, 4-[3-(3-chlorophenyl)-1H-pyrazol-4-yl]-N-(phenylethyl)-2-pyridinamine]	185 to 186 °C	–
CCNc1cc(-c2c[nH]nc2-c2cccc(Cl)c2)ccn1 [Example A-222, 4-[3-(3-chlorophenyl)-1H-pyrazol-4-yl]-N-ethyl-2-pyridinamine]	186 to 187 °C	–
NC(=O)c1cc(-c2cn[nH]c2-c2ccc(F)cc2)ccn1 [Example A-223, 4-[3-(4-fluorophenyl)-1H-pyrazol-4-yl]-2-pyridinecarboxamide]	230 to 231 °C	–
COC(=O)c1cc(-c2c[nH]nc2-c2ccc(F)cc2)ccn1 [Example A-224, Methyl 4-[3-(4-fluorophenyl)-1H-pyrazol-4-yl]-2-pyridinecarboxylate]	239 to 241 °C	–
CNC(=O)c1cc(-c2cn[nH]c2-c2ccc(F)cc2)ccn1 [Example A-225, 4-[3-(4-fluorophenyl)-1H-pyrazol-4-yl]-N-methyl-2-pyridinecarboxamide]	88 to 89 °C	–
Fc1ccc(-c2n[nH]cc2-c2ccnc(Cl)n2)cc1 [Example A-299, 2-Chloro-4-[3-(4-fluorophenyl)-1H-pyrazol-4-yl]pyrimidine]	204 to 205 °C	–
NNc1nccc(-c2cn[nH]c2-c2ccc(F)cc2)n1 [Example A-300, 4-[3-(4-fluorophenyl)-1H-pyrazol-4-yl]-2(1H)-pyrimidinone hydrazone]	149 to 150 °C	–
CN(C)c1nccc(-c2cn[nH]c2-c2ccc(F)cc2)n1 [Example A-301, 4-[3-(4-fluorophenyl)-1H-pyrazol-4-yl]-N,N-dimethyl-2-pyrimidinamine]	155 to 156 °C	–
CCN(CC)C1CCN(c2n[nH]c(-c3ccc(F)cc3)c2-c2ccncc2)CC1 [Example A-388, 1-[5-(4-fluorophenyl)-4-(4-pyridinyl)-1H-pyrazol-3-yl]-N,N-diethyl-4-piperidinamine, trihydrochloride]	–	pIC50 (human TNF; Table 9, human whole blood): 6.47; pIC50 ([1]; Table 9, 10% DMSO): 6.68; inhibition in vivo at 5 mg/kg (TNF-α; Table 9, dose 5 mg/kg, read-out: Rat LPS Assay % Inhibition): 67%; inhibition in vivo at 20 mg/kg (TNF-α; Table 9, dose 20 mg/kg): 97%
Fc1ccc(-c2n[nH]c(N3CCSCC3)c2-c2ccncc2)cc1 [Example A-438]	–	pIC50 (human TNF; Table 10, human whole blood): < 4.60; pIC50 ([1]; Table 10, 10% DMSO, @ 1.0 hour): 6.25; inhibition in vivo at 20 mg/kg (TNF-α; Table 10, dose 20.0 mg/kg): 49%
Clc1ccc(-c2n[nH]c(OC3CCNCC3)c2-c2ccncc2)cc1 [Example A-442]	–	pIC50 (human TNF; Table 10, human whole blood): 6.80; pIC50 ([1]; Table 10, 10% DMSO, @ 1.0 hour): 7.66; inhibition in vivo at 1 mg/kg (TNF-α; Table 10, dose 1.0 mg/kg, read-out: Rat LPS Assay % Inhibition): 51%; inhibition in vivo at 5 mg/kg (TNF-α; Table 10, dose 5.0 mg/kg, read-out: Rat LPS Assay % Inhibition): 56%; inhibition in vivo at 20 mg/kg (TNF-α; Table 10, dose 20.0 mg/kg): 92%
